Data set [1] can be described thus: physchem.
Data set [2] in a line: Plasma elimination half-life in man. It is filed as in vivo. Conditions: human, read-out: plasma elimination half-life, t1/2 (converted).

SMILES strings stand for the structures.

On to `Br.Cc1ccc(N2CCN(C)CC2)c2c1CC[C@@H](NC(=O)c1ccc(N3CCOCC3)cc1)C2` [(R)-N-[5-methyl-8-(4-methylpiperazin-1-yl)-1,2,3,4-tetrahydro-2-naphthyl]-4-morpholinobenzamide monohydrobromide], for which the solubility – broadly, how much of the substance goes into solution per volume – in data set [1] (0.1 M HCl, simulated gastric fluid) is 11 mg/mL; in data set [1] (ethanol/water 1:1, aqueous with cosolvent or surfactant or cyclodextrin) it was 19 mg/mL; in data set [1] (water) it was 6.4 mg/mL. The half-life in data set [2] is 35 h.

The values are drawn from patent US20060034911A1, “New oral immediated release dosage form” (priority 2002, published 2006).
